Measurements from patent publication US12667106B2, “Stabilized mutants of quorum quenching lactonase and use thereof in treatment of pathogens” (priority 2019, dated 2026).

Assays:
[1] = system: Erwinia amylovora; type: in vivo; conditions: 6 days post inoculation, 4 ppm, growth chamber
[2] = system: Erwinia amylovora; type: in vivo; conditions: field, 13 days post inoculation, FIG. 5C

## CCn1cc(C(=O)O)c(=O)c2cc3c(cc21)OCO3 [oxolinic acid]
[1]
  inhibition of flower infection relative to untreated control: 45%
[2]
  inhibition of fire blight symptoms: 70%
